The test system of one test is mouse spleen cells. Description: Blastogenic activity on mouse spleen cells ([3H]-thymidine uptake, Stimulation Index). It is filed as cell-based. The text has this: In the preparation of immune cells, specific pathogen free (SPF) BALB/c mice (Japan SLC, Shizuoka, Japan) were used for examination. Five-week old male mice were purchased, and allowed to freely consume distilled water and MR breeder (Nihon Nosan Kogyo (Nosan Co.)), which is experimental feed for mice and rats. Six- to ten-week-old mice were used for the experiments.
BALB/c mice were anesthetized with ether, and then sacrificed by exsanguination. Their spleens were excised and washed with phosphate buffer (PBS-4×S.P; ph 7.3) containing streptomycin and penicillin ([…] and 400 U/ml, respectively) to remove adipose tissue and such. The spleens were well dispersed in gauze, and spleen cells were filtered through the gauze into PBS to prepare a cell suspension. This cell suspension was centrifuged (at 300×g for five minutes at 4° C.). After discarding the supernatant, the cells were re-suspended in RPMI-1640 medium (SIGMA). The suspension was filtered through a steel mesh to remove aggregated cells, and centrifuged again (five minutes at 300×g and 4° C.). After discarding the supernatant, the cells were finally re-suspended in RPMI-1640 containing 2% fetal calf serum (FCS: Biocell Lab., Inc., CA, US). The viable cell count was determined using a trypan blue staining method, and this suspension was used as the spleen cell suspension in the experiments.
The cell suspension was transferred into each well of a 96-well microplate (SUMITOMO BAKELITE CO., LTD. Tokyo, Japan) to give 2×10^5 cells per well. The dextran and five types of phosphorylated dextrans (molecular weights of about 10,000, 40,000, 160,000, 510,000, and 2,000,000) prepared in Example 1 were respectively added to the wells to a concentration of 100 μg/ml. The cells were then cultured in RPMI-1640 (2% FCS) under 5% CO2 at 37° C. for 48 hours. As positive control samples, lipopolysaccharide (LPS: B-cell mitogen, E. coli 0111: B4, SIGMA) or concanavalin A (ConA: T-cell mitogen, SIGMA) were added at a final concentration of 20 μg/ml and 2 μg/ml, respectively. […] TdR incorporated into the lymphocytes was determined using a liquid scintillation counter (LS1801; Beckman Coulter, Tokyo).
The blastogenic activities on lymphocytes were evaluated by calculating Stimulation Indexes (S.I.) from the [^3H] […]
The blastogenic activities of phosphorylated dextrans on mouse spleen cells were measured as described in Example 5, except that phosphorylated dextrans were added at concentrations of 100 ng/ml, 1 μg/ml, 10 μg/ml, 100 μg/ml, or 200 μg/ml, the cells were incubated in RPMI-1640 medium (2% FCS) under 5% CO2 at 37° C. for 48 hours, and methyl-[^3H]-thymidine uptakes were measured. Blastogenic activity was estimated by calculating S.I. values from the radioactivity, compared with a control. […]

The test system of another test is B cells. Nature of the test: Blastogenic activity on separated B cells (MACS CD45R adsorbed fraction). It is filed as cell-based, mouse. Conditions: B cell fraction, 48 hours, FIG. 6. Here is the method:
(§1) The mouse spleen cell suspension prepared in Example 4 was washed by centrifugation (at 2,500 rpm for five minutes at 4° C.) with a buffer for cell separation (0.5% BSA, 2 mM EDTA/-PBS). 3×10^7 cells were incubated at 4° C. for 15 minutes with 50 μl of a 20-times diluted biotinylated anti-mouse CD45R antibody (CLTAG Lab, Burlingame, Calif.). The cells were washed by centrifugation with the cell separation buffer (five minutes at 2,500 rpm and 4° C.), and the supernatant was then discarded. 30 μl of ten-fold diluted streptavidin microbeads (Miltenyi Biotec GmbH, Germany) was added to the cells, and the mixture was incubated at 4° C. for 15 minutes. The cells were washed by centrifugation with the cell separation buffer (five minutes at 2,500 rpm and 4° C.), re-suspended in the same buffer, and the suspension was then filtered through a nylon mesh to remove aggregated cells. […]
(§2) The cells thus obtained were collected by centrifugation and re-suspended in RPMI-1640 containing 10% FCS. The blastogenic activity was then determined using the method described above, except that the stimulation by phosphorylated NPS was carried out at a concentration of 100 μg/ml, and the cells were incubated for 48 hours.

The next test has as its system T cells. Description: Blastogenic activity on separated T cells (MACS flow-through fraction). The class given is cell-based, mouse. The following applies: T cell fraction, 48 hours, FIG. 6. As for the experimental part: as §1, §2

For Lipopolysaccharide, the “blastogenic activity, S.I. (positive control)” value in the test with mouse spleen cells (LPS 20 μg/ml, 48 hours, FIG. 3) is given as 89.3; in the test with mouse spleen cells (LPS, FIG. 4 experiment), 79.8. Also, the “activation of B cells (positive control)” value in the test on B cells is listed as “specifically activated”.

In the case of concanavalin A, the “blastogenic activity, S.I. (positive control)” value in the test on mouse spleen cells (ConA 2 μg/ml, 48 hours, FIG. 3) was found to be 189.4; with mouse spleen cells (ConA, FIG. 4 experiment) it was 247.8. Besides, the “activation of T cells (positive control)” value in the test with T cells is reported as “specifically activated”.

Source of the values: US20060154896A1, “Phosphorylated dextrans” (priority 2002, published 2006).
